Results: ChEMBL document CHEMBL1144266, “Synthesis and biological evaluation of 3-benzyl-1-methyl- and 1-methyl-3-phenyl-isothioureas as potential inhibitors of iNOS” (2005)

Tests used:
Assay type in all cases: functional, Mus musculus
J774.A1 [1] = assay: Percent inhibition of nitrite release in lipopolysaccharide (LPS) treated J774.A1 macrophage cell lines at concentration of 1E-5M
J774.A1 [2] = assay: Percent inhibition of nitrite release in lipopolysaccharide (LPS) treated J774.A1 macrophage cell lines at concentration of 1E-3 M
J774.A1 [3] = assay: Percent inhibition of nitrite release in lipopolysaccharide (LPS) treated J774.A1 macrophage cell lines at concentration of 1E-6M
J774.A1 [4] = assay: Percent inhibition of nitrite release in lipopolysaccharide (LPS) treated J774.A1 macrophage cell lines at concentration of 1E-8M
J774.A1 [5] = assay: Percent inhibition of nitrite release in lipopolysaccharide (LPS) treated J774.A1 macrophage cell lines at concentration of 1E-7M

In the case of `CCCS/C(=N\C)Nc1ccc(F)cc1`, the Inhibition (J774.A1 [1]) is reported as 10.67%, the Inhibition (J774.A1 [2]) is reported as 53.45% and the Inhibition (J774.A1 [3]) is reported as 4%.

`CCCS/C(=N\C)Nc1ccccc1C` gave an Inhibition (J774.A1 [1]) of 11.45%, an Inhibition (J774.A1 [2]) of 81.01% and an Inhibition (J774.A1 [3]) of 8.12%.

`CCS/C(=N\C)Nc1ccc(F)cc1` showed an Inhibition (J774.A1 [1]) of 9.45%, an Inhibition (J774.A1 [2]) of 60.56% and an Inhibition (J774.A1 [3]) of 5.98%.

With `CCS/C(=N\C)Nc1cccc(F)c1` the Inhibition (J774.A1 [1]) was 10.21%, the Inhibition (J774.A1 [2]) was 59.45% and the Inhibition (J774.A1 [3]) was 6.23%.

`CCS/C(=N\C)Nc1ccccc1F` showed an Inhibition (J774.A1 [1]) of 9.76%, an Inhibition (J774.A1 [2]) of 40.01% and an Inhibition (J774.A1 [3]) of 3.02%.

Work on `CCCS/C(=N\C)Nc1ccccc1Cl` yielded an Inhibition (J774.A1 [1]) of 9.55%, an Inhibition (J774.A1 [2]) of 11.45% and an Inhibition (J774.A1 [3]) of 1.1%.

For `C/N=C(/Nc1ccccc1Cl)SC(C)C`, the Inhibition (J774.A1 [1]) was 8.69%, the Inhibition (J774.A1 [2]) was 16.21% and the Inhibition (J774.A1 [3]) was 3.21%.

`CCS/C(=N\C)Nc1ccc(C)cc1` was tested, and the Inhibition (J774.A1 [1]) was 0%, the Inhibition (J774.A1 [2]) was 56.82% and the Inhibition (J774.A1 [3]) was 0%.

For `C/N=C(/Nc1ccc(C)cc1)SC(C)C`, the Inhibition (J774.A1 [1]) was 28.11%, the Inhibition (J774.A1 [2]) was 73.14% and the Inhibition (J774.A1 [3]) was 39.8%.

Work on `C/N=C(/Nc1cccc(F)c1)SC(C)C` yielded an Inhibition (J774.A1 [1]) of 10.04%, an Inhibition (J774.A1 [2]) of 66.98% and an Inhibition (J774.A1 [3]) of 4.23%.

With `C/N=C(/Nc1ccccc1)SC(C)C` the Inhibition (J774.A1 [1]) was 19.75%, the Inhibition (J774.A1 [2]) was 81.5% and the Inhibition (J774.A1 [3]) was 13.21%.

`C/N=C(/Nc1ccccc1C)SC(C)C` showed an Inhibition (J774.A1 [1]) of 18.78%, an Inhibition (J774.A1 [2]) of 85.21% and an Inhibition (J774.A1 [3]) of 13.56%.

`CN/C(=N\c1ccccc1F)SC` gave an Inhibition (J774.A1 [1]) of 6.01%, an Inhibition (J774.A1 [2]) of 52.45% and an Inhibition (J774.A1 [3]) of 1.56%.

`CN/C(=N\c1ccccc1)SC` was tested, and the Inhibition (J774.A1 [1]) was 8.65%, the Inhibition (J774.A1 [2]) was 65% and the Inhibition (J774.A1 [3]) was 5.1%.

`C/N=C(/Nc1ccc(Cl)cc1)SC(C)C` showed an Inhibition (J774.A1 [1]) of 7.09%, an Inhibition (J774.A1 [2]) of 48.09% and an Inhibition (J774.A1 [3]) of 8.21%.

Work on `CN/C(=N/Cc1ccccc1)SC` yielded an Inhibition (J774.A1 [4]) of -2.65%, an Inhibition (J774.A1 [1]) of -54.53% and an Inhibition (J774.A1 [5]) of -5.96%. The Inhibition (J774.A1 [3]) was -9.54%.

For `CCS/C(=N\C)NCc1ccccc1`, the Inhibition (J774.A1 [4]) was -7.28%, the Inhibition (J774.A1 [1]) was -26.84% and the Inhibition (J774.A1 [5]) was -2.41%. The Inhibition (J774.A1 [3]) was -23.65%.

In the case of `CN/C(=N\c1cccc(Cl)c1)SC`, the Inhibition (J774.A1 [1]) is reported as 12.33%, the Inhibition (J774.A1 [2]) is reported as 45.38% and the Inhibition (J774.A1 [3]) is reported as 4.06%.

`CCS/C(=N\C)Nc1ccccc1` was tested, and the Inhibition (J774.A1 [1]) was 2.67%, the Inhibition (J774.A1 [2]) was 76.76% and the Inhibition (J774.A1 [3]) was 1.67%.

Compound `CCCS/C(=N\C)Nc1cccc(F)c1` has an Inhibition (J774.A1 [1]) of 11.11%, an Inhibition (J774.A1 [2]) of 53.91% and an Inhibition (J774.A1 [3]) of 7%.

`C/N=C(/Nc1ccccc1F)SC(C)C` was tested, and the Inhibition (J774.A1 [1]) was 9.91%, the Inhibition (J774.A1 [2]) was 67.71% and the Inhibition (J774.A1 [3]) was 2.76%.

Work on `COC(=O)[C@@H](N)CCCNC(=N)N[N+](=O)[O-]` [L-NAME] yielded an Inhibition (J774.A1 [1]) of 20.37%, an Inhibition (J774.A1 [2]) of 69.49% and an Inhibition (J774.A1 [3]) of 12.8%.

With `CCCS/C(=N\C)Nc1ccc(Cl)cc1` the Inhibition (J774.A1 [1]) was 5.08%, the Inhibition (J774.A1 [2]) was 50.04% and the Inhibition (J774.A1 [3]) was 1.1%.

In the case of `CCS/C(=N\C)Nc1ccc(Cl)cc1`, the Inhibition (J774.A1 [1]) is reported as 10.45%, the Inhibition (J774.A1 [2]) is reported as 54.05% and the Inhibition (J774.A1 [3]) is reported as 0.5%.

With `C/N=C(/Nc1cccc(Cl)c1)SC(C)C` the Inhibition (J774.A1 [1]) was 8%, the Inhibition (J774.A1 [2]) was 46.9% and the Inhibition (J774.A1 [3]) was 7.09%.

Compound `CCS/C(=N\C)Nc1cccc(C)c1` has an Inhibition (J774.A1 [1]) of 14.02%, an Inhibition (J774.A1 [2]) of 81.03% and an Inhibition (J774.A1 [3]) of 6.79%.

Compound `CN/C(=N\c1ccc(Cl)cc1)SC` has an Inhibition (J774.A1 [1]) of 7.55%, an Inhibition (J774.A1 [2]) of 69.05% and an Inhibition (J774.A1 [3]) of 2.9%.

`CN/C(=N\c1cccc(F)c1)SC` showed an Inhibition (J774.A1 [1]) of 9.34%, an Inhibition (J774.A1 [2]) of 66.9% and an Inhibition (J774.A1 [3]) of 5.23%.

For `CCCS/C(=N\C)Nc1ccccc1`, the Inhibition (J774.A1 [1]) was 15.7%, the Inhibition (J774.A1 [2]) was 65.78% and the Inhibition (J774.A1 [3]) was 4.65%.

`CN/C(=N\c1ccccc1Cl)SC` was tested, and the Inhibition (J774.A1 [1]) was 4.67%, the Inhibition (J774.A1 [2]) was 21.32% and the Inhibition (J774.A1 [3]) was 2.9%.

`CN/C(=N\c1cccc(C)c1)SC` gave an Inhibition (J774.A1 [1]) of 15.34%, an Inhibition (J774.A1 [2]) of 75% and an Inhibition (J774.A1 [3]) of 7.03%.

`CN/C(=N\c1ccc(C)cc1)SC` gave an Inhibition (J774.A1 [1]) of 18.1%, an Inhibition (J774.A1 [2]) of 67.8% and an Inhibition (J774.A1 [3]) of 4.67%.

Compound `CCS/C(=N\C)Nc1ccccc1Cl` has an Inhibition (J774.A1 [1]) of 10.21%, an Inhibition (J774.A1 [2]) of 19.55% and an Inhibition (J774.A1 [3]) of 2.9%.

With `CN/C(=N\c1ccccc1C)SC` the Inhibition (J774.A1 [1]) was 17.45%, the Inhibition (J774.A1 [2]) was 75.1% and the Inhibition (J774.A1 [3]) was 8.32%.

With `CCS/C(=N\C)Nc1ccccc1C` the Inhibition (J774.A1 [1]) was 15.33%, the Inhibition (J774.A1 [2]) was 65.21% and the Inhibition (J774.A1 [3]) was 7.44%.

Work on `C/N=C(/Nc1cccc(C)c1)SC(C)C` yielded an Inhibition (J774.A1 [1]) of 18.55%, an Inhibition (J774.A1 [2]) of 68.77% and an Inhibition (J774.A1 [3]) of 19.89%.

`C/N=C(/Nc1ccc(F)cc1)SC(C)C` gave an Inhibition (J774.A1 [1]) of 9.03%, an Inhibition (J774.A1 [2]) of 61.45% and an Inhibition (J774.A1 [3]) of 4.76%.

For `CCCS/C(=N\C)NCc1ccccc1`, the Inhibition (J774.A1 [4]) was -7.96%, the Inhibition (J774.A1 [1]) was -39.58% and the Inhibition (J774.A1 [5]) was -31.36%. For the same compound, the Inhibition (J774.A1 [3]) was -33.71%.

Work on `CCCS/C(=N\C)Nc1cccc(Cl)c1` yielded an Inhibition (J774.A1 [1]) of 9.34%, an Inhibition (J774.A1 [2]) of 58.45% and an Inhibition (J774.A1 [3]) of 5.01%.

`CCCS/C(=N\C)Nc1ccc(C)cc1` showed an Inhibition (J774.A1 [1]) of 2.08%, an Inhibition (J774.A1 [2]) of 83.42% and an Inhibition (J774.A1 [3]) of 1.54%.

With `CCS/C(=N\C)Nc1cccc(Cl)c1` the Inhibition (J774.A1 [1]) was 11.56%, the Inhibition (J774.A1 [2]) was 41.56% and the Inhibition (J774.A1 [3]) was 3.44%.

Compound `CCCS/C(=N\C)Nc1cccc(C)c1` has an Inhibition (J774.A1 [1]) of 12.09%, an Inhibition (J774.A1 [2]) of 78.34% and an Inhibition (J774.A1 [3]) of 8.31%.

`CCCS/C(=N\C)Nc1ccccc1F` showed an Inhibition (J774.A1 [1]) of 11.26%, an Inhibition (J774.A1 [2]) of 65.61% and an Inhibition (J774.A1 [3]) of 4.15%.
